In PubChem BioAssay AID248 (DTP/NCI, 2004):
Where “and” joins values, the source holds several entries; their conditions need not be identical. Equal values may be shown once. Toxic doses and inconclusive results are not listed. Cut-off read from the data, not from the text of the source: active = T/C of 150% or more; inactive = T/C below 125%. Square brackets hold non-standard residues; d marks the D form. Peptide text beside a SMILES is read from it. * marks the point of attachment. ξ: configuration not given here. Cbz = O=C(OCc1ccccc1)*; ξS = NC(CO)C(=O)O

System: L1210 leukemia ip in BDF1 mice, survival T/C
Test: NCI In Vivo Anticancer Drug Screen. Data for tumor model L1210 Leukemia (intraperitoneal) in B6D2F1 (BDF1) mice
Conditions: endpoint: mean survival time, higher = longer survival
Method in brief: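 Each compound was tested against a transplantable tumor grown in mice. The endpoint was survival, with treated animals benchmarked against vehicle controls as a simple ratio.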

[1] = dose: 200.0 mg/kg/injection, schedule: Q01DX001 (ip), vehicle: saline
[2] = dose: 100.0 mg/kg/injection, schedule: Q04DX002 (ip), vehicle: Klucel (hydroxypropylcellulose) (HPC)
[3] = dose: 50.0 mg/kg/injection, schedule: Q01DX001 (ip), vehicle: saline
[4] = dose: 100.0 mg/kg/injection, schedule: Q01DX001 (ip), vehicle: saline
[5] = dose: 400.0 mg/kg/injection, schedule: Q01DX001 (ip), vehicle: saline
[6] = dose: 100.0 mg/kg/injection, schedule: Q01DX001 (ip), vehicle: saline with Tween-80
[7] = dose: 200.0 mg/kg/injection, schedule: Q01DX001 (ip), vehicle: saline with Tween-80
[8] = dose: 400.0 mg/kg/injection, schedule: Q01DX001 (ip), vehicle: saline with Tween-80
[9] = dose: 75.0 mg/kg/injection, schedule: Q01DX009 (ip), vehicle: Klucel (hydroxypropylcellulose) (HPC)
[10] = dose: 100.0 mg/kg/injection, schedule: Q01DX009 (ip), vehicle: Klucel (hydroxypropylcellulose) (HPC)
[11] = dose: 200.0 mg/kg/injection, schedule: Q01DX009 (ip), vehicle: Klucel (hydroxypropylcellulose) (HPC)
[12] = dose: 100.0 mg/kg/injection, schedule: Q04DX003 (ip), vehicle: Klucel (hydroxypropylcellulose) (HPC)
[13] = dose: 200.0 mg/kg/injection, schedule: Q04DX003 (ip), vehicle: Klucel (hydroxypropylcellulose) (HPC)
[14] = dose: 400.0 mg/kg/injection, schedule: Q01DX009 (ip), vehicle: Klucel (hydroxypropylcellulose) (HPC)
[15] = dose: 400.0 mg/kg/injection, schedule: Q04DX003 (ip), vehicle: Klucel (hydroxypropylcellulose) (HPC)
[16] = dose: 400.0 mg/kg/injection, schedule: Q04DX002 (ip), vehicle: saline with Tween-80

Measured: T/C

CCCCNc1ncnc2c1cnn2C
inactive: dose: 31.25 mg/kg/injection, schedule: Q01DX010 (ip), vehicle: saline 94 % of control and 105 % of control | dose: 50.0 mg/kg/injection, schedule: Q01DX Z (ip), vehicle: saline 102 % of control | dose: 62.5 mg/kg/injection, schedule: Q01DX010 (ip), vehicle: saline 100 % of control | dose: 75.0 mg/kg/injection, schedule: Q01DX Z (ip), vehicle: saline 100 % of control | dose: 100.0 mg/kg/injection, schedule: Q01DX Z (ip), vehicle: saline 111 % of control | dose: 125.0 mg/kg/injection, schedule: Q01DX010 (ip), vehicle: saline 97 % of control and 113 % of control | [1] 98 % of control

CC(C)(CO)CN1CCCCC1
inactive: dose: 50.0 mg/kg/injection, schedule: Q01DX009 (ip), vehicle: saline with Tween-80 93 % of control | dose: 100.0 mg/kg/injection, schedule: Q01DX009 (ip), vehicle: saline with Tween-80 93 % of control

O=C(O)C1CC(c2ccccc2)C(=O)O1 (configuration not stated)
inactive: [2] 100 % of control | dose: 200.0 mg/kg/injection, schedule: Q04DX002 (ip), vehicle: Klucel (hydroxypropylcellulose) (HPC) 100 % of control | dose: 400.0 mg/kg/injection, schedule: Q04DX002 (ip), vehicle: Klucel (hydroxypropylcellulose) (HPC) 96 % of control

C(/C=C/c1ccccc1)=C\c1ccccc1
inactive: [3] 104 % of control | [4] 104 % of control | [1] 104 % of control | [5] 104 % of control

CCCCC(CN)c1cccc2ccccc12 (configuration not stated)
inactive: dose: 25.0 mg/kg/injection, schedule: Q04DX002 (ip), vehicle: saline with Tween-80 95 % of control | dose: 50.0 mg/kg/injection, schedule: Q04DX002 (ip), vehicle: saline with Tween-80 92 % of control

Nc1cccc(CCc2nc(N)nc(N)c2-c2ccc(Cl)c(Cl)c2)c1
inactive: [6] 95 % of control | [7] 109 % of control | [8] 109 % of control

O=C(C[P+](c1ccccc1)(c1ccccc1)c1ccccc1)Nc1ccccc1
inactive: dose: 10.0 mg/kg/injection, schedule: Q01DX009 (ip), vehicle: Klucel (hydroxypropylcellulose) (HPC) 100 % of control | dose: 20.0 mg/kg/injection, schedule: Q01DX009 (ip), vehicle: Klucel (hydroxypropylcellulose) (HPC) 108 % of control | dose: 40.0 mg/kg/injection, schedule: Q01DX009 (ip), vehicle: Klucel (hydroxypropylcellulose) (HPC) 100 % of control | [9] 107 % of control

NNC(=O)C1CC2C(=O)NNC(=O)C2C1C(=O)O (configuration not stated)
inactive: [4] 102 % of control | [1] 107 % of control | [5] 113 % of control

CC1(C#N)CC(C#N)Nc2ccccc2N1 (configuration not stated)
inactive: dose: 100.0 mg/kg/injection, schedule: Q01DX009 (ip), vehicle: saline 104 % of control | dose: 200.0 mg/kg/injection, schedule: Q01DX009 (ip), vehicle: saline 98 % of control

COc1cc(OC)c(NC(=O)CCl)cc1Cl
inactive: [10] 104 % of control | [11] 98 % of control

C=CCSc1ccc([N+](=O)[O-])cc1
inactive: dose: 50.0 mg/kg/injection, schedule: Q01DX001 (ip), vehicle: carboxymethylcellulose (CMC) 101 % of control | dose: 100.0 mg/kg/injection, schedule: Q01DX001 (ip), vehicle: carboxymethylcellulose (CMC) 95 % of control | dose: 200.0 mg/kg/injection, schedule: Q01DX001 (ip), vehicle: carboxymethylcellulose (CMC) 104 % of control | dose: 400.0 mg/kg/injection, schedule: Q01DX001 (ip), vehicle: carboxymethylcellulose (CMC) 98 % of control

O=C1c2c(c(-c3ccccc3)c3ccccc3c2-c2ccccc2)C(c2ccccc2)c2c1c(-c1ccccc1)c1ccccc1c2-c1ccccc1
inactive: [6] 111 % of control | [7] 97 % of control | [8] 90 % of control

Cc1ccc(NC(=O)Nc2cccc3ccccc23)c(C)c1
inactive: [12] 91 % of control | [11] 88 % of control | [13] 95 % of control | [14] 92 % of control | [15] 91 % of control

CN(CCN(C)S(=O)(=O)c1ccccc1)S(=O)(=O)c1ccccc1
inactive: [9] 94 % of control | dose: 150.0 mg/kg/injection, schedule: Q01DX009 (ip), vehicle: Klucel (hydroxypropylcellulose) (HPC) 107 % of control | dose: 300.0 mg/kg/injection, schedule: Q01DX009 (ip), vehicle: Klucel (hydroxypropylcellulose) (HPC) 95 % of control

CN1CCN(C(=O)c2ccc(C(=O)N3CCN(C)CC3)cc2)CC1
inactive: dose: 15.0 mg/kg/injection, schedule: Q01DX Z (ip), vehicle: saline 94 % of control | dose: 30.0 mg/kg/injection, schedule: Q01DX Z (ip), vehicle: saline 94 % of control | dose: 60.0 mg/kg/injection, schedule: Q01DX Z (ip), vehicle: saline 108 % of control | dose: 120.0 mg/kg/injection, schedule: Q01DX Z (ip), vehicle: saline 102 % of control | dose: 125.0 mg/kg/injection, schedule: Q01DX Z (ip), vehicle: carboxymethylcellulose (CMC) 96 % of control | dose: 250.0 mg/kg/injection, schedule: Q01DX Z (ip), vehicle: carboxymethylcellulose (CMC) 102 % of control | dose: 500.0 mg/kg/injection, schedule: Q01DX Z (ip), vehicle: carboxymethylcellulose (CMC) 90 % of control

O=C1CSCC(=O)O1
inactive: dose: 50.0 mg/kg/injection, schedule: Q01DX009 (ip), vehicle: Klucel (hydroxypropylcellulose) (HPC) 97 % of control | [10] 89 % of control | [11] 86 % of control

O=C1c2cccc(S(=O)(=O)O)c2C(=O)c2cccc(S(=O)(=O)O)c21
inactive: [3] 102 % of control | [4] 109 % of control | [1] 111 % of control | [5] 109 % of control

O=C(O)CCC(C(=O)O)N1C(=O)C2C3CCC(C3)C2C1=O (configuration not stated)
inactive: dose: 25.0 mg/kg/injection, schedule: Q04DX003 (ip), vehicle: saline with Tween-80 93 % of control | dose: 50.0 mg/kg/injection, schedule: Q04DX003 (ip), vehicle: saline with Tween-80 96 % of control | dose: 100.0 mg/kg/injection, schedule: Q04DX003 (ip), vehicle: saline with Tween-80 93 % of control and 98 % of control | dose: 200.0 mg/kg/injection, schedule: Q04DX003 (ip), vehicle: saline with Tween-80 95 % of control | dose: 400.0 mg/kg/injection, schedule: Q04DX003 (ip), vehicle: saline with Tween-80 98 % of control

CS(=O)NOCCCCONS(C)=O (configuration not stated)
inactive: dose: 100.0 mg/kg/injection, schedule: Q04DX002 (ip), vehicle: saline with Tween-80 96 % of control and 89 % of control | dose: 200.0 mg/kg/injection, schedule: Q04DX002 (ip), vehicle: saline with Tween-80 96 % of control and 100 % of control | [16] 86 % of control

C=CCNC(=S)Nc1ccccc1C=O
inactive: dose: 25.0 mg/kg/injection, schedule: Q04DX002 (ip), vehicle: Klucel (hydroxypropylcellulose) (HPC) 100 % of control | dose: 50.0 mg/kg/injection, schedule: Q04DX002 (ip), vehicle: Klucel (hydroxypropylcellulose) (HPC) 106 % of control | [2] 110 % of control and 90 % of control

Fc1ccc(F)c(-c2c(F)ccc(F)c2F)c1F
inactive: dose: 25.6 mg/kg/injection, schedule: Q04DX002 (ip), vehicle: saline with Tween-80 100 % of control | dose: 64.0 mg/kg/injection, schedule: Q04DX002 (ip), vehicle: saline with Tween-80 113 % of control | dose: 160.0 mg/kg/injection, schedule: Q04DX002 (ip), vehicle: saline with Tween-80 95 % of control | [16] 103 % of control

CC(=O)C(CCS(C)(=O)=O)(CCS(C)(=O)=O)C(=O)O
inactive: [12] 107 % of control | [13] 94 % of control | [15] 103 % of control

N#CCCNC(=S)Nc1ccccc1
inactive: dose: 25.0 mg/kg/injection, schedule: Q01DX Z (ip), vehicle: methylcellulose (MC) 102 % of control | dose: 50.0 mg/kg/injection, schedule: Q01DX Z (ip), vehicle: methylcellulose (MC) 101 % of control

COC(=O)C(CO)NC(=O)CNC(=O)OCc1ccccc1 (stereo not drawn) (Cbz-Gly-[ξS]-OMe)
inactive: dose: 100.0 mg/kg/injection, schedule: Q04DX003 (ip), vehicle: water 98 % of control | dose: 200.0 mg/kg/injection, schedule: Q04DX003 (ip), vehicle: water 94 % of control | dose: 400.0 mg/kg/injection, schedule: Q04DX003 (ip), vehicle: water 96 % of control

Cc1ccc(NC(=O)Oc2cc(C)c(Cl)cc2C(C)C)cc1
inactive: [10] 98 % of control | [11] 96 % of control | [14] 100 % of control
